# Results taken from paper PMC12067741, “Inhibition of SOD1 trimerization is a novel drug target for ALS disease” (Translational Neurodegeneration, 2025).
# What was measured:
# [1] = BBB-PAMPA (parallel artificial membrane permeability assay); settings: for recovery at 4 h, 10 µM: PAMPA
# Text: Next, we checked the basic in vitro ADME test including pharmacokinetics, plasma protein binding, CYP (Cytochrome P450) inhibition, metabolic stability and blood–brain barrier (BBB) permeability. […] We also plan to test safety panel assay in the future to obtain safety data for the drug.
# Fig. S8. […]
# MT-SOD1 protein uptake = test: SOD1 recombinant protein uptake into neuronal cells; type: cell-based; settings: SH-SY5Y cells, Dynasore 50 mM (so in the source), 6 hr
# Experimental: For monitoring the localization of SOD1 recombinant proteins, SOD1-Halo proteins were added in neuronal cultures for 2 h and then the cells were incubated with the cell-permeable HaloTag-fluorscent ligands (diAcFAM) for 30 min. After incubation, cells were washed with serum-free culture medium three times and incubated in serum-containing culture medium in a CO2 incubator for 30 min to wash out unbound ligand. Fluorescent images of live cells were obtained using a commercial Tomocube HT-2H holotomography system (Daejeon, Republic of Korea).
# We hypothesized that PRG-A-04, which targets trimeric SOD1, would inhibit SOD1 protein uptake. MT-SOD1 proteins were incubated with PRG-A-04 in vitro, and then cells were treated with the mixture. The MT-SOD1 protein uptake was reduced by incubation with PRG-A-04, as was SOD1 oligomerization (Fig. 3f, g). […] However, whether neuron-specific receptors on synapses, physiological conditions (neuronal cellular stress such as ion deficiency, environmental conditions such as hypoxia) and other ALS-related genetic causes (TDP-43, FUS, etc.) are essential for SOD1 uptake requires further study.
# Fig. S3 SOD1 protein uptake into the cells through endocytosis. a, The uptake of SOD1 proteins was achieved by endocytosis. SH-SY5Y cells were treated with SOD1 recombinant proteins and endocytosis inhibitor (Dynasore; […]) for 6hr. After incubations, cells were harvested with RIPA and separated by SDS-PAGE. S.E: short exposure, L.E: long exposure. b, The recombinant MT-SOD1 protein is located intracellular space in neuron cells. SOD1-Halo proteins (3 μg/ml) were treated in neuron cells for 2 hr and incubated with HaloTag-fluorscent ligands (cellpermeable ligands; diAcFAM) for 30 min. After incubation, cells were washed with fresh culture medium three times and.
# Incubate cells in complete culture medium at CO2 incubator for 30 min to wash unbound ligand. The fluorescence images of live cells were obtained using a commercial holotomography (HT-2H). White arrows indicate the intensity of SOD1. BF; Bright field, Scale bar; […].
# [2] = Pharmacokinetics in mice (compound screening, IV/PO); type: in vivo, mouse
# Experimental: Fig. S1. Optimized inhibitor reduces SOD1 aggregation. a, Mutant SOD1s induced WT-SOD1 aggregation. Testing the selected chemicals to check the inhibitory effect on SOD1 aggregation .HEK293 cells were transfected with MT-SOD1 vectors (A4V, G 93 A) and treated with selected chemicals (5 mM). After incubation, transfected cells were harvested with TNNI buffer and fixed with 0.04% glutaraldehyde (Glu) for 30min. Samples were separated using SDS-PAGE. b-c, PRG-A-04 inhibited SOD1 inclusions in SK-N-SH cells. (b) Cells expressing MT-SOD1 vectors were treated with PRG-A-04 ([…]) for 24 hr. After incubation, cells were fixed with 4 % PFA and observed under the fluorescence microscope. (c) Cells with SOD1 inclusions (white arrows; strong intensity of SOD1) were counted by photomicrographs and the percentages were shown with standard deviation (SD). For cell counting, ten fluorescence images were randomly selected. Counting of cells were performed by three independent observers, who were blinded to transfection or chemical treatment group; two-tailed Student’s t-test. NS; Not significant, ****P < 0.001, d, PRG-A- […]
# degradationin blood as well as gastro-intestinal tract.IV; intravenous injected group, PO; Per Os administrated group e, […]
# show cytotoxicity. To know the toxic effect of PRG-A-04 , human normal fibroblast (f) and neuron cells (g) were incubated with PRG -A-04 for 48 hr dose dependently and measured the viability through MTT assay .“Con” means Dimethyl sulfoxide (DMSO) -treated control . The data are normalized to DMSO-treated cells. n=3 independent experiments; two-tailed Student’s t-test.NS; Not significant, *P < 0.05, **P < 0.01, ***P < 0.005.
# SOD1^G93A−Tg mice = system: SOD1^G93A−Tg mice; design: method as in PMID 34912047; settings: cited from earlier work
# WT-WT SOD1 interaction = system: WT-WT SOD1 interaction; design: method as in PMID 34912047; settings: cited from earlier work
# ALS = settings: cited from earlier work
# [3] = biological target: pan-SOD1 antibody (Pan-SOD1 Ab); test: dot blot assay, band intensity quantified with Image J; settings: normalised to Con, read off a plot
# [4] = biological target: misfolding-specific SOD1 antibody (Mis-SOD1 Ab); test: as above; settings: normalised to Con, read off a plot
# [5] = Con (no PRG-A-04), Mis-SOD1 signal over Pan-SOD1 signal
# [6] = PRG-A-04 treated, Mis-SOD1 signal over Pan-SOD1 signal
# Chain of WT-SOD1 (wild-type SOD1) expressed in transfected cells (from UniProt P00441) G93A (P00441 whole entry, looked up, stated change not applied): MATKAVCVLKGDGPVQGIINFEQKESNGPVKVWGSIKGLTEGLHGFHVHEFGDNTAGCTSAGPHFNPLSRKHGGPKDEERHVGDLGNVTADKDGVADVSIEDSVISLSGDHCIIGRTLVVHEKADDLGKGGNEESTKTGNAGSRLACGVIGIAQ
# Chain of WT-SOD1 (wild-type SOD1) expressed in transfected cells (from UniProt P00441) G85R (P00441 whole entry, looked up, stated change not applied): as above
molecule,measurement,setting,value
CC(C)NCC(O)COc1ccc(CC(N)=O)cc1 (stereo not shown) [Atenolol],"recovery at 4 h, 10 µM",[1],< 109%
"O=C(N/N=C/c1ccc(O)c(O)c1)c1cc2ccccc2cc1O [Dynasore, reference compound]",effect on SOD1 protein uptake,MT-SOD1 protein uptake,inhibited
COc1cc(C=CC(=O)OC2Cc3cc4ccc(=O)oc4cc3OC2(C)C)ccc1O (stereo not shown) [PRG-A-01],bioavailability,[2]; in vivo,poorly bioavailable
same,degradation in blood as well as gastro-intestinal tract,"[2]; pharmacokinetics analysis, IV and PO groups (Fig. S1d)",rapid
same,extension of lifespan of SOD1G93A-Tg mice,SOD1^G93A−Tg mice,about 10 days
same,effect on WT-WT SOD1 interaction,WT-WT SOD1 interaction,did not show inhibitory effects
CC(C)NCC(O)COc1cccc2ccccc12 (stereo not shown) [Propranolol],Mean Pe,"[1]; BBB-PAMPA, test concentration 10 µM, incubation 4 hour",7.66 ×10⁻⁶ cm/s
same,Permeability,"[1]; BBB-PAMPA, test concentration 10 µM, incubation 4 hour, class in words",High
same,"recovery at 4 h, 10 µM",[1],82.4%
CC1=NN(c2ccccc2)C(=O)C1 [radicava],efficacy on ALS progression,ALS,efficacy in delaying ALS progression
same,efficacy on survival rate,ALS,no efficacy on survival rate
Nc1nc2ccc(OC(F)(F)F)cc2s1 [riluzole],efficacy on ALS progression,ALS,efficacy in delaying ALS progression
Tofersen,effect on functional decline in clinical trials,ALS; SOD1-ALS patients,failed to improve functional decline
WT-SOD1 (wild-type SOD1) expressed in transfected cells (from UniProt P00441) G85R,response,[3]; Con (no PRG-A-04),1 A.U.
same,response,[3]; PRG-A-04 treated,1.3 A.U.
same,response,[4]; [5],1 A.U.
same,response,[4]; Con (no PRG-A-04),1 A.U.
same,response,[4]; [6],0.42 A.U.
same,response,[4]; PRG-A-04 treated,0.53 A.U.
WT-SOD1 (wild-type SOD1) expressed in transfected cells (from UniProt P00441) G93A,response,[3]; Con (no PRG-A-04),1 A.U.
same,response,[3]; PRG-A-04 treated,0.77 A.U.
same,response,[4]; [5],1 A.U.
same,response,[4]; Con (no PRG-A-04),1 A.U.
same,response,[4]; [6],0.25 A.U.
same,response,[4]; PRG-A-04 treated,0.2 A.U.
